Values joined by “and” are separate entries in the source; they are usually repeats but may differ in a detail not shown here. Equal entries are not always repeated. Values belong to the compound of their own block, whether it stands above or below them.
Tested on: 324938-238-R-J1-PDC complex spheroid viability
Test: Anticancer human tumor 324938-238-R-J1-PDC patient-derived bladder carcinoma cell line growth inhibition
Conditions: for viability, T/C: stronger effect = lower value
Outline: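 Multicellular complex spheroids of tumor cells with human endothelial cells (HUVEC) and mesenchymal stem cells; the LSD1 inhibitor iadademstat was combined with standard-of-care or investigational agents. Top concentration at or near clinical Cmax, half-log dilutions; final DMSO ≤0.25%.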
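Note: spheroids also contain HUVEC and human MSCs and agents combined with iadademstat; spheroids exposed to agents for 7 days before readout.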

Structure (SMILES): CC1COCCN1c1cc(C2(S(C)(=N)=O)CC2)nc(-c2ccnc3[nH]ccc23)n1 (configuration not stated) + NC1CC1c1ccc(-c2cccc(O)c2)cc1
IC50 (curve of first compound, second compound 0.1 µM): 507 nM
IC50 (curve of first compound, second compound 0.316 µM): 301 nM
IC50 (curve of first compound, second compound 1 µM): 304 nM
IC50 (curve of first compound, second compound 3.16 µM): 374 nM
IC50 (curve of first compound, second compound 10 µM): 294 nM
viability, T/C (second compound 0.1 µM, first compound 0.0316 µM): 86.1%
viability, T/C (second compound 0.1 µM, first compound 0.1 µM): 81.3%
viability, T/C (second compound 0.1 µM, first compound 0.316 µM): 58.3%
viability, T/C (second compound 0.1 µM, first compound 1 µM): 35.9%
viability, T/C (second compound 0.1 µM, first compound 3.16 µM): 18%
viability, T/C (second compound 0.1 µM, first compound 10 µM): 8.83%
viability, T/C (second compound 0.316 µM, first compound 0.0316 µM): 80.1%
viability, T/C (second compound 0.316 µM, first compound 0.1 µM): 71%
viability, T/C (second compound 0.316 µM, first compound 0.316 µM): 46.3%
viability, T/C (second compound 0.316 µM, first compound 1 µM): 30.8%
viability, T/C (second compound 0.316 µM, first compound 3.16 µM): 20.5%
viability, T/C (second compound 0.316 µM, first compound 10 µM): 8.77%
viability, T/C (second compound 1 µM, first compound 0.0316 µM): 74.5%
viability, T/C (second compound 1 µM, first compound 0.1 µM): 65.3%
viability, T/C (second compound 1 µM, first compound 0.316 µM): 47.9%
viability, T/C (second compound 1 µM, first compound 1 µM): 34.6%
viability, T/C (second compound 1 µM, first compound 3.16 µM): 21.8%
viability, T/C (second compound 1 µM, first compound 10 µM): 9.55%
viability, T/C (second compound 3.16 µM, first compound 0.0316 µM): 67.6%
viability, T/C (second compound 3.16 µM, first compound 0.1 µM): 71.5%
viability, T/C (second compound 3.16 µM, first compound 0.316 µM): 47.8%
viability, T/C (second compound 3.16 µM, first compound 1 µM): 35.9%
viability, T/C (second compound 3.16 µM, first compound 3.16 µM): 22.2%
viability, T/C (second compound 3.16 µM, first compound 10 µM): 10.4%
viability, T/C (second compound 10 µM, first compound 0.0316 µM): 75%
viability, T/C (second compound 10 µM, first compound 0.1 µM): 66.1%
viability, T/C (second compound 10 µM, first compound 0.316 µM): 45.7%
viability, T/C (second compound 10 µM, first compound 1 µM): 36.4%
viability, T/C (second compound 10 µM, first compound 3.16 µM): 21.2%
viability, T/C (second compound 10 µM, first compound 10 µM): 12.2%

IC50 (curve of compound): 8.59 nM and 4.69 nM
Structure (SMILES): O=C(C=Cn1cnc(-c2cc(C(F)(F)F)cc(C(F)(F)F)c2)n1)NNc1cnccn1
viability, T/C (compound 0.00316 µM): 85.4% and 60.8%
viability, T/C (compound 0.01 µM): 44.7% and 28.6%
viability, T/C (compound 0.0316 µM): 17.7% and 14.8%
viability, T/C (compound 0.1 µM): 7.73% and 4.52%
viability, T/C (compound 0.316 µM): 4.23% and 3.45%
viability, T/C (compound 1 µM): 2.35% and 1.64%

IC50 (curve of compound): 51.4 nM and 31.1 nM
Structure (SMILES): CC1COCCN1c1cc(-c2ccnn2C)c2ccnc(-c3ccn[nH]3)c2n1 (configuration not stated)
viability, T/C (compound 0.00316 µM): 101%
viability, T/C (compound 0.01 µM): 103% and 83.1%
viability, T/C (compound 0.0316 µM): 60.4% and 48.2%
viability, T/C (compound 0.1 µM): 33.5% and 25.6%
viability, T/C (compound 0.316 µM): 18.6% and 14.7%
viability, T/C (compound 1 µM): 13.1% and 10.3%

IC50 (compound alone, run of 12/07/2021): > 10000 nM
Structure (SMILES): NC1CC1c1ccc(-c2cccc(O)c2)cc1 (configuration not stated)
viability, T/C (compound 0.1 µM): 86.9% and 102% and 91.3%
viability, T/C (compound 3.16 µM): 73.9% [middle of 23 runs]
